Experimental data reported in US5430043A, “Platelet aggregation inhibitors” (G. D. Searle & Co., priority 1993, dated 1995).
Where a name gives a salt, the structure may show the parent alone.

Columns and labels:
[1] = tested on: Platelet aggregation in PRP (dog); assay: In-Vitro Platelet Aggregation in PRP (Dog), collagen-induced; type: cell-based; conditions: collagen 33 μg/ml final
Procedure: In-Vitro Platelet Aggregation in PRP--(Dog)
Healthy male or female dogs were fasted for 8 hours prior to drawing blood; then 60 ml whole blood was collected using a butterfly needle and 60 cc plastic syringe with 6 ml of 0,129 M buffered sodium citrate (3.8%) (drawn from a minimum of 3 dogs and blood was pooled). The syringe was rotated carefully as blood was drawn to mix the citrate. Platelet-rich plasma (PRP) was prepared by centrifugation at 975×g for 3.17 minutes at room temperature, allowing the centrifuge to coast to a stop without braking. The PRP was removed from the blood with a plastic pipette and placed in a plastic capped 50 ml Corning conical sterile centrifuge tube which was held at room temperature. Platelet poor plasma (PPP) was prepared by centrifuging the remaining blood at 2000×g for 15 minutes at room temperature allowing the centrifuge to coast to a stop without braking. The platelet count in the PRP was routinely 2-4×10^8 platelets per ml. 400 μl of the PRP preparation and 50 μl of the compound to be tested or saline were preincubated for 2 minutes at 37° C. in a BioData aggregometer (BioData, Horsham, Pa.). 50 μl of collagen (diluted 1:3 with 5% dextrose and water solution, 33 μg/ml final concentration, equine tendon, Chronolog, Havertown, Pa.) was added to the cuvettes and the aggregation was monitored for 3 minutes. All compounds are tested in duplicate. Results are calculated as follows: [formula]
The assay results for the compounds of the present invention and their median inhibitory concentrations (IC50) are recorded in Tables I-III.

[2] = tested on: collagen-induced platelet aggregation; assay: Oral (IG) administration of compound (ester) to dogs; inhibition of collagen-induced platelet aggregation; type: in vivo; conditions: dog
Procedure: Oral Administration of Compound
Dogs (n=2) were weighed and two control blood samples (2×2 ml) were drawn via venipuncture from the cephalic vein. Blood was centrifuged at 266×g for 6 minutes to prepare PRP. Percent aggregation prior to compound administration (baseline) was established by adding 50 μl of collagen to 450 μl of PRP and measuring aggregation for 4 minutes. Compound (in the ester form) was administered orally (single dose) by gelatin capsule. Blood samples (2×2 ml) were drawn at selected time intervals after dosing. Inhibition of collagen-induced platelet aggregation was determined by comparing aggregation responses in the samples containing compound with the responses of samples before compound administration (baseline). The remaining blood was centrifuged for 2 minutes at 12,000 ×g to prepare PPP for determination of concentration of compound in the plasma samples by bioassay (see below).

[3] = tested on: collagen-induced platelet aggregation; assay: I.V. compound (acid) administration to dogs; inhibition of collagen-induced platelet aggregation; type: in vivo; conditions: dog, 1 mg/kg
Procedure: I.V. Compound Administration
Dogs were placed in a dog sling. Two control blood samples (2×2 ml) were collected and PRP was prepared and percent aggregation was determined to establish a baseline as stated above. Compound (in the acid form) in 4 ml of saline/water (50:50) was injected into the cephalic vein over one minute with a syringe connected to a 23 g butterfly infusion set. Blood samples (2×2 ml) were drawn at 5 minute intervals after dosing for the first 15 minutes, 15 minute intervals until 60 minutes, 30 minute intervals until 2 hours, hourly until ~6 hours, again at 24 hours or until baseline aggregation was reached. PRP was prepared for aggregation studies as previously described. PPP was prepared for determination of concentration of compound by bioassay (see below).

[4] = Canis lupus familiaris, Platelet

Molecule: COC(=O)CC(CC(=O)O)NC(=O)CN1CCN(c2ccc(C(=N)N)cc2)C1=O (racemic) [Example 14, (±)Methylhydrogen3-[[[[1-[4-(aminoiminomethyl)phenyl]-4,5-dihydro-2(3H)-oxo-1H-imidazol-3-yl]methyl]carbonyl]amino]pentanedioate]
- IC50 [1, 4]: 0.18 µM

Molecule: C=CC(CC(=O)OCC)NC(=O)Cn1ccn(-c2ccc(C(=N)N)cc2)c1=O (stereo in doubt) [Example 11, Ethyl 3-[[[[1-[4-(aminoiminomethyl)phenyl]-2(3H)-oxo-1H-imidazol-3-yl]methyl]carbonyl]amino]pent-4(3S)-enoate trifluoroacetate]
- Hours duration (IG - ester) ([2]; 5 mg/kg): 24 h
- % inhibition (IG - ester) ([2]; 5 mg/kg, 24 hr): 35%
- Max % inhibition (IG - ester) ([2]; 5 mg/kg, max @ 3 hours): 71%

Molecule: C=CC(CC(=O)O)NC(=O)Cn1ccn(-c2ccc(C(=N)N)cc2)c1=O (stereo in doubt) [Example 12, 3-[[[[1-[4-(aminoiminomethyl)phenyl]-2(3H)-oxo-1H-imidazol-3-yl]methyl]carbonyl]amino]-4(3S)-pentenoic acid trifluoroacetate]
- IC50 [1, 4]: 0.65 µM
- Hours duration (IV - acid) [3]: 6 h
- % inhibition (IV - acid) ([3]; 6 hr): 54%

Molecule: N=C(N)c1ccc(-n2ccn(CC(=O)NCCC(=O)O)c2=O)cc1 [Example 3, 3-[[[[1-[4-(aminoiminomethyl)phenyl]-2(3H)-oxo-1H-imidazol-3-yl]methyl]carbonyl]amino]propanoic acid, trifluoroacetate]
- IC50 [1, 4]: 2 µM

Molecule: N=C(N)c1ccc(-n2ccn(CC(=O)NCCCC(=O)O)c2=O)cc1 [Example 4, 4-[[[[1-[4-(aminoiminomethyl)phenyl]-2(3H)-oxo-1H-imidazol-3-yl]methyl]carbonyl]amino]butanoic acid trifluoroacetate]
- inhibition at 1 µM [1, 4]: 0%

Molecule: N=C(N)c1ccc(N2CCN(CC(=O)NCCC(=O)O)C2=O)cc1 [Example 5, 3-[[[[1-[4-(aminoiminomethyl)phenyl]-4,5-dihydro-2(3H]-oxo-1H-imidazol-3-yl]methyl]carbonyl]amino]propanoic acid, trifluoroacetate]
- IC50 [1, 4]: 0.19 µM
- Hours duration (IV - acid) [3]: 24 h
- % inhibition (IV - acid) ([3]; 24 hr): 31%

Molecule: N=C(N)c1ccc(N2CCN(CC(=O)NCCCC(=O)O)C2=O)cc1 [Example 7, 4-[[[[1-[4-(Aminoiminomethyl)phenyl]-4,5-dihydro-2(3H)-oxo-1H-imidazol-3-yl]methyl]carbonyl]amino]butanoic acid]
- IC50 [1, 4]: 1.1 µM

Molecule: CCOC(=O)CCNC(=O)CN1CCN(c2ccc(C(=N)N)cc2)C1=O [Example 8, Ethyl 3-[[[[1-[4-(aminoiminomethyl)phenyl]-4,5-dihydro-2(3H)-oxo-1H-imidazol-3-yl]methyl]carbonyl]amino]propanoate]
- Hours duration (IG - ester) ([2]; 2.5 mg/kg): 3.1 h
- % inhibition (IG - ester) ([2]; 2.5 mg/kg, 3.1 hr): 16%

Molecule: CCOC(=O)CC(C)NC(=O)Cn1ccn(-c2ccc(C(=N)N)cc2)c1=O (stereo not shown) [Example 9, Ethyl 3-[[[[1-[4-(aminoiminomethyl)phenyl]-2(3H)-oxo-1H-imidazol-3-yl]methyl]carbonyl]amino]butanoate trifluoroacetate]
- Hours duration (IG - ester) ([2]; 10 mg/kg): 4.5 h
- % inhibition (IG - ester) ([2]; 10 mg/kg, 4.5 hr): 33%

Molecule: CC(CC(=O)O)NC(=O)Cn1ccn(-c2ccc(C(=N)N)cc2)c1=O (stereo not shown) [Example 10, 3-[[[1-[4-(aminoiminomethyl)phenyl]-2(3H)-oxo-1H-imidazol-3-yl]methyl]carbonyl]amino]butanoic acid trifluoroacetate]
- IC50 [1, 4]: 0.62 µM

Molecule: COC(=O)CC(CC(=O)OC)NC(=O)CN1CCN(c2ccc(C(=N)N)cc2)C1=O [Example 13, Dimethyl 3-[[[[1-[4-(aminoiminomethyl)phenyl]-4,5-dihydro-2(3H)-oxo-1H-imidazol-3-yl]methyl]carbonyl]amino]pentanedioate]
- Hours duration (IG - ester) ([2]; 5 mg/kg): 24 h
- % inhibition (IG - ester) ([2]; 5 mg/kg, 24 hr): 14%
- Max % inhibition (IG - ester) ([2]; 5 mg/kg, max @ 6 hours): 63%

Molecule: N=C(N)c1ccc(-n2ccn(CCC(=O)NCCC(=O)O)c2=O)cc1 [Example 16, 3-[[[[1-[4-(aminoiminomethyl)phenyl]-2(3H)-oxo-1H-imidazol-3-yl]ethyl]carbonyl]amino]propanoic acid]
- IC50 [1, 4]: 0.34 µM

Molecule: CCOC(=O)CC(NC(=O)Cn1ccn(-c2ccc(C(=N)N)cc2)c1=O)c1ccoc1 (stereo not drawn) [Example 19, Ethyl β-[[[[1-[4-(aminoiminomethyl)phenyl]-2(3H)-oxo-1H-imidazol-3-yl]-methyl]carbonyl]amino]-3-furanpropanoate trifluoroacetate]
- Hours duration (IG - ester) ([2]; 10 mg/kg): 24 h
- % inhibition (IG - ester) ([2]; 10 mg/kg, 24 hr): 28%
- Max % inhibition (IG - ester) ([2]; 10 mg/kg, max @ 6 hours): 85%

Molecule: N=C(N)c1ccc(-n2ccn(CC(=O)NC(CC(=O)O)c3ccoc3)c2=O)cc1 (stereo not drawn) [Example 20, β-[[[[1-[4-(aminoiminomethyl)phenyl]-2(3H)-oxo-1H-imidazol-3-yl]methyl]carbonyl]amino]-3-furanpropanoic acid trifluoroacetate]
- IC50 [1, 4]: 0.7 µM

Molecule: CCOC(=O)CC(NC(=O)Cn1ccn(-c2ccc(C(=N)N)cc2)c1=O)c1cccnc1 (stereo not drawn) [Example 21, Ethyl β-[[[[1-[4-(aminoiminomethyl)phenyl]-2(3H)-oxo-1H-imidazol-3-yl]methyl]carbonyl]amino]-3-pyridinepropanoate]
- Hours duration (IG - ester) ([2]; 10 mg/kg): 24 h
- % inhibition (IG - ester) ([2]; 10 mg/kg, 24 hr): 43%

Molecule: N=C(N)c1ccc(-n2ccn(CC(=O)NC(CC(=O)O)c3cccnc3)c2=O)cc1 (stereo not drawn) [Example 22, β-[[[[1-[4-(aminoiminomethyl)phenyl]-2(3H)-oxo-1H-imidazol-3-yl]methyl]carbonyl]amino]-3-pyridinepropanoic acid]
- IC50 [1, 4]: 0.17 µM
- Hours duration (IV - acid) [3]: 24 h
- % inhibition (IV - acid) ([3]; 24 hr): 40%

Molecule: CCOC(=O)C[C@H](NC(=O)CN1CCN(c2ccc(C(=N)N)cc2)C1=O)c1cccnc1 [Example 23, Ethyl β-[[[[1-[4-(aminoiminomethyl]phenyl]-4,5-dihydro-2(3H)-oxo-1H-imidazol-3-yl]methyl]carbonyl]amino]-3(S)-pyridinepropanoate]
- Hours duration (IG - ester) ([2]; 5 mg/kg): 24 h
- % inhibition (IG - ester) ([2]; 5 mg/kg, 24 hr): 88%

Molecule: N=C(N)c1ccc(N2CCCN(CC(=O)NCCC(=O)O)C2=O)cc1 [Example 26, 3-[[[[1-[4-(Aminoiminomethyl)phenyl]-1,4,5,6-tetrahydro-2(3H)-oxopyrimidin-3-yl]methyl]carbonyl]amino]propanoic acid, trifluoroacetate]
- inhibition at 1 µM [1, 4]: 18%

Molecule: β-[[[[4-(aminoiminomethyl)phenyl]-4,5-dihydro-2(3H)-oxo-1H-imidazol-3- yl]methyl]carbonyl]amino]-3-pyridinepropanoic acid [Example 24]
- IC50 [1]: 0.08 µM
- Hours duration (IV - acid) [3]: 27 h
- % inhibition (IV - acid) ([3]; 27 hr): 98%
